Results as given in ChEMBL document CHEMBL1201862, “PubChem BioAssay data set” (2004).
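Five concentrations, 48 hours, 96-well plates. GI50: concentration for 50% inhibition of growth.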 Active and inactive are the calls of the source. Cut-off read from the data, not from the text of the source: active = GI50 up to about 1.1 µM and inactive = higher.

Columns and labels:
Experiment in all cases: NCI tumour cell line growth inhibition, 48 h
786-0 = test system: 786-0
A549 = test system: A549
ACHN = test system: ACHN
CCRF-CEM = test system: CCRF-CEM
COLO 205 = test system: COLO 205
DLD-1 = test system: DLD-1
DMS-114 = test system: DMS-114
DMS-273 = test system: DMS-273
EKVX = test system: EKVX
HCC 2998 = test system: HCC 2998
HCT-116 = test system: HCT-116
HCT-15 = test system: HCT-15
HL-60 = test system: HL-60
HOP-62 = test system: HOP-62
HOP-92 = test system: HOP-92
HT-29 = test system: HT-29
IGROV-1 = test system: IGROV-1
K562 = test system: K562
KM-20L2 = test system: KM-20L2
KM12 = test system: KM12
LOX IMVI = test system: LOX IMVI
LXFL 529 = test system: LXFL 529
M14 = test system: M14
M19-MEL = test system: M19-MEL
MOLT-4 = test system: MOLT-4
Malme-3M = test system: Malme-3M
NCI-H23 = test system: NCI-H23
NCI-H460 = test system: NCI-H460
NCI-H522 = test system: NCI-H522
OVCAR-3 = test system: OVCAR-3
OVCAR-4 = test system: OVCAR-4
OVCAR-5 = test system: OVCAR-5
OVCAR-8 = test system: OVCAR-8
RPMI-8226 = test system: RPMI-8226
RXF 393 = test system: RXF 393
SF-268 = test system: SF-268
SF-295 = test system: SF-295
SF-539 = test system: SF-539
SK-MEL-28 = test system: SK-MEL-28
SK-MEL-2 = test system: SK-MEL-2
SK-MEL-5 = test system: SK-MEL-5
SN12C = test system: SN12C
SNB-19 = test system: SNB-19
SNB-75 = test system: SNB-75
SNB-78 = test system: SNB-78
SW-620 = test system: SW-620
TK-10 = test system: TK-10
U-251 = test system: U-251
UACC-257 = test system: UACC-257
UACC-62 = test system: UACC-62
UO-31 = test system: UO-31
XF498 = test system: XF498
A498 = test system: A498
CAKI-1 = test system: CAKI-1
HOP-18 = test system: HOP-18
SK-OV-3 = test system: SK-OV-3
NCI-H226 = test system: NCI-H226
SR = test system: SR

## COC(=O)C1=C(C(=O)OC)C2(C)Nc3ccccc3C2=C(c2ccccc2)C1 (stereo unspecified)
786-0
  GI50: 22.5 µM (inactive)
A549
  GI50: 20.4 µM (inactive)
ACHN
  GI50: 22.1 µM (inactive)
CCRF-CEM
  GI50: 19.4 µM (inactive)
COLO 205
  GI50: 19.2 µM (inactive)
DLD-1
  GI50: 30.4 µM (inactive)
DMS-114
  GI50: 18.3 µM (inactive)
DMS-273
  GI50: 21.4 µM (inactive)
EKVX
  GI50: 28.8 µM (inactive)
HCC 2998
  GI50: 26.2 µM (inactive)
HCT-116
  GI50: 19 µM (inactive)
HCT-15
  GI50: 20.8 µM
HL-60
  GI50: 19.9 µM (inactive)
HOP-62
  GI50: 22.4 µM (inactive)
HOP-92
  GI50: 13.3 µM (inactive)
HT-29
  GI50: 27.7 µM (inactive)
IGROV-1
  GI50: 22.1 µM (inactive)
K562
  GI50: 16.1 µM (inactive)
KM-20L2
  GI50: 28.1 µM (inactive)
KM12
  GI50: 13.5 µM (inactive)
LOX IMVI
  GI50: 25.7 µM (inactive)
LXFL 529
  GI50: 15.1 µM (inactive)
M14
  GI50: 17 µM (inactive)
M19-MEL
  GI50: 24.2 µM (inactive)
MOLT-4
  GI50: 11.9 µM (inactive)
Malme-3M
  GI50: 18.4 µM (inactive)
NCI-H23
  GI50: 19 µM (inactive)
NCI-H460
  GI50: 19.4 µM (inactive)
NCI-H522
  GI50: 15.8 µM (inactive)
OVCAR-3
  GI50: 17.9 µM (inactive)
OVCAR-4
  GI50: 17.9 µM (inactive)
OVCAR-5
  GI50: 24.5 µM (inactive)
OVCAR-8
  GI50: 25 µM (inactive)
RPMI-8226
  GI50: 10.4 µM (inactive)
RXF 393
  GI50: 21.3 µM (inactive)
SF-268
  GI50: 19.1 µM (inactive)
SF-295
  GI50: 23.2 µM (inactive)
SF-539
  GI50: 17.1 µM (inactive)
SK-MEL-28
  GI50: 19.8 µM (inactive)
SK-MEL-2
  GI50: 17.8 µM (inactive)
SK-MEL-5
  GI50: 15.5 µM (inactive)
SN12C
  GI50: 23.7 µM (inactive)
SNB-19
  GI50: 24 µM (inactive)
SNB-75
  GI50: 2.13 µM (inactive)
SNB-78
  GI50: 19 µM (inactive)
SW-620
  GI50: 26.5 µM (inactive)
TK-10
  GI50: 26.6 µM (inactive)
U-251
  GI50: 19.8 µM (inactive)
UACC-257
  GI50: 17.9 µM (inactive)
UACC-62
  GI50: 16.7 µM (inactive)
UO-31
  GI50: 17.9 µM (inactive)
XF498
  GI50: 12.7 µM (inactive)

## COc1ccc(/C=C/C(=O)c2sc(NC(=S)NC(=O)c3ccccc3F)nc2C)cc1OC
786-0
  GI50: > 100 µM (inactive)
A498
  GI50: > 100 µM (inactive)
A549
  GI50: > 100 µM (inactive)
ACHN
  GI50: > 100 µM (inactive)
CAKI-1
  GI50: > 100 µM (inactive)
CCRF-CEM
  GI50: 35.6 µM (inactive)
COLO 205
  GI50: 51.5 µM (inactive)
DLD-1
  GI50: > 100 µM (inactive)
DMS-114
  GI50: > 100 µM (inactive)
DMS-273
  GI50: > 100 µM (inactive)
EKVX
  GI50: > 100 µM (inactive)
HCC 2998
  GI50: > 100 µM (inactive)
HCT-15
  GI50: > 100 µM
HL-60
  GI50: 46.2 µM (inactive)
HOP-18
  GI50: 22.8 µM (inactive)
HOP-62
  GI50: > 100 µM (inactive)
HOP-92
  GI50: 98.9 µM (inactive)
IGROV-1
  GI50: > 100 µM (inactive)
K562
  GI50: > 100 µM (inactive)
KM-20L2
  GI50: > 100 µM (inactive)
KM12
  GI50: > 100 µM (inactive)
LOX IMVI
  GI50: > 100 µM (inactive)
M19-MEL
  GI50: > 100 µM (inactive)
MOLT-4
  GI50: 65.6 µM (inactive)
Malme-3M
  GI50: > 100 µM (inactive)
NCI-H23
  GI50: > 100 µM (inactive)
NCI-H460
  GI50: > 100 µM (inactive)
NCI-H522
  GI50: 21.5 µM (inactive)
OVCAR-3
  GI50: > 100 µM (inactive)
OVCAR-5
  GI50: > 100 µM (inactive)
OVCAR-8
  GI50: > 100 µM (inactive)
RPMI-8226
  GI50: 36.2 µM (inactive)
RXF 393
  GI50: 36.5 µM (inactive)
SF-268
  GI50: > 100 µM (inactive)
SF-295
  GI50: > 100 µM (inactive)
SF-539
  GI50: > 100 µM (inactive)
SK-MEL-28
  GI50: 66.7 µM (inactive)
SK-MEL-2
  GI50: > 100 µM (inactive)
SK-MEL-5
  GI50: 88.3 µM (inactive)
SK-OV-3
  GI50: > 100 µM (inactive)
SN12C
  GI50: > 100 µM (inactive)
SNB-19
  GI50: > 100 µM (inactive)
SNB-75
  GI50: 26.5 µM (inactive)
SNB-78
  GI50: > 100 µM (inactive)
SW-620
  GI50: > 100 µM (inactive)
TK-10
  GI50: > 100 µM (inactive)
U-251
  GI50: > 100 µM (inactive)
UACC-62
  GI50: 85.9 µM (inactive)
UO-31
  GI50: 37.3 µM (inactive)

## CCN(CC)c1c(C(=O)/C=C/c2ccccc2)c(-c2ccccc2)nn(C)c1=O
786-0
  GI50: 7.31 µM (inactive)
A498
  GI50: 5.43 µM (inactive)
A549
  GI50: 5.37 µM (inactive)
ACHN
  GI50: 8.51 µM (inactive)
CAKI-1
  GI50: > 100 µM (inactive)
CCRF-CEM
  GI50: 2.2 µM (inactive)
COLO 205
  GI50: 5.81 µM (inactive)
DLD-1
  GI50: 3.27 µM (inactive)
DMS-114
  GI50: 5.32 µM (inactive)
DMS-273
  GI50: 4.98 µM (inactive)
EKVX
  GI50: 8.3 µM (inactive)
HL-60
  GI50: 4.22 µM (inactive)
HOP-62
  GI50: > 100 µM (inactive)
HOP-92
  GI50: 45.1 µM (inactive)
HT-29
  GI50: 5.48 µM (inactive)
IGROV-1
  GI50: 9.79 µM (inactive)
K562
  GI50: 2.52 µM (inactive)
KM-20L2
  GI50: 5.06 µM (inactive)
KM12
  GI50: 4.18 µM (inactive)
LOX IMVI
  GI50: 3.55 µM (inactive)
LXFL 529
  GI50: 5.01 µM (inactive)
M19-MEL
  GI50: > 100 µM (inactive)
MOLT-4
  GI50: 1.66 µM (inactive)
Malme-3M
  GI50: 2.8 µM (inactive)
NCI-H226
  GI50: 93.1 µM (inactive)
NCI-H460
  GI50: 3.83 µM (inactive)
NCI-H522
  GI50: 6 µM (inactive)
OVCAR-4
  GI50: 4.78 µM (inactive)
OVCAR-5
  GI50: 6.53 µM (inactive)
OVCAR-8
  GI50: 5.37 µM (inactive)
RXF 393
  GI50: 3.98 µM (inactive)
SF-268
  GI50: 5.98 µM (inactive)
SF-295
  GI50: 6.01 µM (inactive)
SF-539
  GI50: 21.3 µM (inactive)
SK-MEL-28
  GI50: 7.14 µM (inactive)
SK-MEL-5
  GI50: 5.02 µM (inactive)
SK-OV-3
  GI50: > 100 µM (inactive)
SN12C
  GI50: 4.68 µM (inactive)
SNB-19
  GI50: 29.4 µM (inactive)
SR
  GI50: 3.21 µM (inactive)
TK-10
  GI50: > 100 µM (inactive)
UACC-257
  GI50: 8.17 µM (inactive)
UACC-62
  GI50: 5.41 µM (inactive)
UO-31
  GI50: > 100 µM (inactive)
XF498
  GI50: 11.2 µM (inactive)
